In article PMC11375011, “Inducible auto-phosphorylation regulates a widespread family of nucleotidyltransferase toxins” (Nature Communications, 2024):

Key:
[1] = molecular target: T1, MenA1:MenT1 (MenT1 in the presence of MenA1) (Mycobacterium tuberculosis, UniProt L7N686)
T1 construct: gene Rv0078A

[2] = molecular target: T1, MenA1:MenT1 (MenT1 in the presence of MenA1); remark: listed apart in the source

Compound | ΔTm [1] | phosphorylation assay of MenT1 [2]
Nc1ccn([C@@H]2O[C@H](COP(=O)(O)OP(=O)(O)OP(=O)(O)O)[C@@H](O)[C@H]2O)c(=O)n1 [CTP] | no significant differences between mean ΔTm values were observed when incubated with any | 
Nc1ncnc2c1ncn2[C@@H]1O[C@H](COP(=O)(O)OP(=O)(O)OP(=O)(O)O)[C@@H](O)[C@H]1O [ATP] | no significant differences between mean ΔTm values were observed when incubated with any | 
Nc1nc2c(ncn2[C@@H]2O[C@H](COP(=O)(O)OP(=O)(O)OP(=O)(O)O)[C@@H](O)[C@H]2O)c(=O)[nH]1 [GTP] | no significant differences between mean ΔTm values were observed when incubated with any | 
Nc1ncnc2c1ncn2[C@@H]1O[C@H](COP(=O)(O)OP(=O)(O)O)[C@@H](O)[C@H]1O [ADP] |  | Co-incubation of MenT1, MenA1 and MgCl2 with ADP, but not AMP or AMP-PNP, supported phosphorylation
O=c1ccn([C@@H]2O[C@H](COP(=O)(O)OP(=O)(O)OP(=O)(O)O)[C@@H](O)[C@H]2O)c(=O)[nH]1 [UTP] | no significant differences between mean ΔTm values were observed when incubated with any | 
